Reference: patent publication US20240174636A1, “NOVEL INDOLEAMINE 2,3-DIOXYGENASE INHIBITORS, PROCESSES FOR THE PREPARATION THEREOF AND PHARMACEUTICAL COMPOSITIONS COMPRISING THE SAME” (YUHAN CORPORATION, priority 2021, published 2024)

Columns and labels:
IDO1 [1] = target: T1, IDO1 (Homo sapiens, UniProt P14902); test: IDO1 cellular activity using Hela cells (IFN-gamma induced IDO expression, kynurenine absorbance at 480 nm); format: cell-based; conditions: IDO induced with interferon gamma 50 ng/ml, 24 h compound incubation, read-out: Inhibitory Activity (IC50)
Protocol: Hela cells were seeded at a density of 20000 cells/well in 100 μl of a culture medium (EMEM supplemented with 10% FBS, penicillin 100 U/ml, and streptomycin 100 μg/ml) in a tissue culture-treated 96 well plate. The cells were cultured in a 5% carbon dioxide incubator for 24 hours, treated with recombinant human interferon gamma at the concentration of 50 ng/ml, and then cultured for 48 hours in a 5% carbon dioxide incubator to induce IDO expression.
The activities were measured using IDO1 cellular activity-measuring substrate (IDO1 cellular activity quickDetect supplements catalog: #62000-2, BPS Bioscience). Specifically, an assay medium was prepared by diluting IDO1 assay medium substrate 1 and IDO1 assay medium supplement 2 in a culture medium at a ratio of 1:100, respectively. The test compounds were diluted to the predetermined concentrations in the fresh assay medium. After removing the culture medium using a multi-pipet, 200 μl of each assay medium containing the test material was added into the respective well, followed by incubating in a 5% carbon dioxide incubator for 24 hours. The next day, 140 μl of culture medium from each well was transferred to a new 96-well plate. 10 μl of 6.1N trichloroacetic acid was added into each well, which was then cultured in a 50° C. incubator for 30 minutes. The plate was centrifuged at 2500 rpm for 10 minutes to settle any sediment. A detection reagent solution was prepared by diluting the detection reagent (component D kit, catalog: #62000-2, BPS Bioscience) 50-fold in acetic acid. 100 μl of the supernatant taken from the centrifuged plate was transferred to a new transparent 96-well plate and then 100 μl of the detection reagent solution was added thereto. After reacting at room temperature for 10 minutes, absorbance was measured at 480 nm wavelength. For analysis of the results, the absorbance (At) of the well containing Hela cells in which IDO protein expression was induced without treatment of an inhibitor was 100%; and the absorbance (Ab) of the well containing Hela cells in which IDO protein expression was not induced was 0. The % absorbance was calculated according to the following equation: % Absorbance=(A−Ab)/(At−Ab), A=absorbance of the well treated with the test compound.
The results obtained by calculating the 50% inhibitory concentration (C50) of each compound, from the absorbance values obtained as described above, are shown in Table 1 below.

IDO1 [2] = target: T1, IDO1; test: IDO1 cellular activity using HEK293 cells transfected with IDO1 expression vector; format: cell-based; design: host or cells: HEK293 cells, transient transfection with Lipofectamine 2000; conditions: 24 h compound incubation, read-out: Inhibitory Activity (IC50)
Protocol: HEK293 cells were seeded at a density of 30000 cells/well in 100 μl of a culture medium (DMEM supplemented with 10% FBS, penicillin 100 U/ml, and streptomycin 100 μg/ml) in a tissue culture-treated 96 well plate. The cells were cultured in a 5% carbon dioxide incubator for 24 hours, transfected with the IDO1 expression vector (component A in IDO1 cell-based assay kit, catalog #72031, BPS Bioscience) using Lipofectamine 2000 (Life Technologies, #11668027), and then cultured for 24 hours in a 5% carbon dioxide incubator to express the IDO protein.
The activities were measured using a IDO1 cell-based assay kit (catalog #72031, BPS Bioscience). Specifically, an assay medium was prepared by diluting IDO1 assay medium substrate 1 and IDO1 assay medium supplement 2 in a culture medium at a ratio of 1:100, respectively. The test compounds were diluted to the predetermined concentrations in the fresh assay medium. After removing the culture medium using a multi-pipet, 200 μl of each assay medium containing the test material was added into respective well, followed by incubating in a 5% carbon dioxide incubator for 24 hours. The next day, 140 μl of culture medium from each well was transferred to a new 96-well plate. 10 μl of 6.1N trichloroacetic acid was added into each well, which was then cultured in a 50° C. incubator for 30 minutes. The plate was centrifuged at 2500 rpm for 10 minutes to settle any sediment. A detection reagent solution was prepared by diluting the detection reagent (component D in IDO1 cell-based assay kit, catalog #72031 BPS Bioscience) 50-fold in acetic acid. 100 μl of the supernatant taken from the centrifuged plate was transferred to a new transparent 96-well plate and then 100 μl of the detection reagent solution was added thereto. After reacting at room temperature for 10 minutes, absorbance was measured at 480 nm wavelength. For analysis of the results, the absorbance (At) of the well containing HEK293 cells in which IDO protein was expressed without treatment of an inhibitor was 100%; and the absorbance (Ab) of the well containing HEK293 cells in which IDO protein was not expressed was 0. The % absorbance was calculated according to the following equation: % Absorbance=(A−Ab)/(At−Ab), A=absorbance of the well treated with the test compound.

[3] = Pharmacokinetics through oral administration in normal rats; format: in vivo; conditions: 10 mg/5 mL/kg; for Maximum plasma concentration: suspension in 0.5% methyl cellulose containing 0.2% Tween 80
Protocol: The pharmacokinetics of the compounds of Examples 2, 5 and 25 and BMS-986205 (control) were measured in rats, respectively. The compounds of Examples 2, 5 and 25 and BMS-986205 (control) were each suspended in 0.5% methyl cellulose containing 0.2% Tween 80 and then orally administered to rats at a dose of 10 mg/5 mL/kg. Blood samples were collected from the rat in predetermined times. The concentration of the compound in each sample was analyzed to obtain the blood concentration profiles (FIG. 1).

T1 sequence (P14902 whole entry): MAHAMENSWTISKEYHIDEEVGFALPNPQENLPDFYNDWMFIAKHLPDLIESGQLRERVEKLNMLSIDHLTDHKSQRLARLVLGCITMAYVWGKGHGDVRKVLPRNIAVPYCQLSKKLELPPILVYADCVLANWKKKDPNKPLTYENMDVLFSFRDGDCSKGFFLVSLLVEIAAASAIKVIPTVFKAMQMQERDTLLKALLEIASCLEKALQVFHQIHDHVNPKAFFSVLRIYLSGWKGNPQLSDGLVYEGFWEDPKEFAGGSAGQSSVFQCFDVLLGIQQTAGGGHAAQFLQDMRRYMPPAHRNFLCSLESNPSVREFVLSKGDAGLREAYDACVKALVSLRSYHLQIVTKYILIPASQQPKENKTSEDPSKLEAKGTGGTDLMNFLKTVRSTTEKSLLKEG

Row | IC50 (IDO1 [1]) [µM] | IC50 (IDO1 [2]) [µM] | Area under the curve [3] [µg·h/mL] | Time to maximum plasma concentration [3] [h] | Maximum plasma concentration [3] [ng/mL] | SMILES
1 | 0.024 | 0.0143 |  |  |  | CCOc1ccc2nc(N[C@H](CC)C[C@H]3CC[C@@H](c4ccnc5ccc(F)cc54)CC3)sc2c1 [Example 20, 6-ethoxy-N-((R)-1-((cis)-4-(6-fluoroquinolin-4-yl)cyclohexyl)butan-2-yl)benzo[d]thiazol-2-amine]
2 | 0.027 | 0.0076 |  |  |  | C[C@H](C[C@H]1CC[C@@H](c2ccnc3ccc(F)cc32)CC1)Nc1nc2ncc(Cl)cc2s1 [Example 23, 6-chloro-N-((R)-1-((cis)-4-(6-fluoroquinolin-4-yl)cyclohexyl)propan-2-yl)thiazolo[4,5-b]pyridin-2-amine]
3 | 0.01 | 0.0099 |  |  |  | C[C@H](C[C@H]1CC[C@@H](c2ccnc3ccc(F)cc32)CC1)Nc1nc2ccc(F)cc2o1 [Example 29, 6-fluoro-N-((R)-1-((cis)-4-(6-fluoroquinolin-4-yl)cyclohexyl)propan-2-yl)benzo[d]oxazol-2-amine]
4 | 0.023 | 0.0074 |  |  |  | CC[C@H](C[C@H]1CC[C@@H](c2ccnc3ccc(F)cc32)CC1)Nc1nc2ccc(Cl)cc2o1 [Example 27, 6-chloro-N-((R)-1-((cis)-4-(6-fluoroquinolin-4-yl)cyclohexyl)butan-2-yl)benzo[d]oxazol-2-amine]
5 | 0.0235 | 0.0191 |  |  |  | C[C@H](C[C@H]1CC[C@@H](c2ccnc3ccc(F)cc32)CC1)Nc1nc2cccnc2o1 [Example 30, N-((R)-1-((cis)-4-(6-fluoroquinolin-4-yl)cyclohexyl)propan-2-yl)oxazolo[5,4-b]pyridin-2-amine]
6 |  |  | 3.9767 | 1 | 656.8 | C[C@@H](C(=O)Nc1ccc(Cl)cc1)C1CCC(c2ccnc3ccc(F)cc23)CC1 (stereo partly shown) [BMS-986205, reference compound]
7 | 0.016 | 0.0109 |  |  |  | COc1ccc2nc(N[C@H](C)C[C@H]3CC[C@@H](c4ccnc5ccc(F)cc54)CC3)sc2n1 [Example 22, N-((R)-1-((cis)-4-(6-fluoroquinolin-4-yl)cyclohexyl)propan-2-yl)-5-methoxythiazolo[5,4-b]pyridin-2-amine]
8 | 0.019 | 0.0206 |  |  |  | C[C@H](C[C@H]1CC[C@@H](c2ccnc3ccc(F)cc32)CC1)Nc1nc2c(F)cc(F)cc2s1 [Example 17, 4,6-difluoro-N-((R)-1-((cis)-4-(6-fluoroquinolin-4-yl)cyclohexyl)propan-2-yl)benzo[d]thiazol-2-amine]
9 | 0.0102 | 0.0095 |  |  |  | C[C@H](C[C@H]1CC[C@H](c2ccnc3ccc(F)cc32)CC1)Nc1c(F)c(=O)oc2cc(Cl)ccc12 [Example 10, 7-chloro-3-fluoro-4-(((R)-1-((trans)-4-(6-fluoroquinolin-4-yl)cyclohexyl)propan-2-yl)amino)-2H-chromen-2-one]
10 | 0.016 |  | 73.4602 | 4 | 4476.3 | C[C@H](C[C@H]1CC[C@H](c2ccnc3ccc(F)cc32)CC1)Nc1cc(=O)oc2cc(Br)ccc12 [Example 5, 7-bromo-4-(((R)-1-((trans)-4-(6-fluoroquinolin-4-yl)cyclohexyl)propan-2-yl)amino)-2H-chromen-2-one]
11 | 0.0088 |  | 108.4411 | 1 | 18050.3 | C[C@H](C[C@H]1CC[C@@H](c2ccnc3ccc(F)cc32)CC1)Nc1ncnc2cc(Br)ccc12 [Example 2, 7-bromo-N-((R)-1-((cis)-4-(6-fluoroquinolin-4-yl)cyclohexyl)propan-2-yl)quinazolin-4-amine]
12 | 0.03 | 0.0326 |  |  |  | C[C@H](C[C@H]1CC[C@@H](c2ccnc3ccc(F)cc32)CC1)Nc1nc2ccc(Cl)cc2s1 [Example 13, 6-chloro-N-((R)-1-((cis)-4-(6-fluoroquinolin-4-yl)cyclohexyl)propan-2-yl)benzo[d]thiazol-2-amine]
13 | 0.0072 | 0.0112 |  |  |  | C[C@H](C[C@H]1CC[C@H](c2ccnc3ccc(F)cc32)CC1)Nc1c(F)c(=O)oc2cc(Br)ccc12 [Example 12, 7-bromo-3-fluoro-4-(((R)-1-((trans)-4-(6-fluoroquinolin-4-yl)cyclohexyl)propan-2-yl)amino)-2H-chromen-2-one]
14 | 0.0075 | 0.004 |  |  |  | C[C@H](C[C@H]1CC[C@@H](c2ccnc3ccc(F)cc32)CC1)Nc1nc2cccc(Cl)c2s1 [Example 18, 7-chloro-N-((R)-1-((cis)-4-(6-fluoroquinolin-4-yl)cyclohexyl)propan-2-yl)benzo[d]thiazol-2-amine]
15 | 0.0175 | 0.0091 |  |  |  | C[C@H](C[C@H]1CC[C@@H](c2ccnc3ccc(F)cc32)CC1)Nc1nc2ncc(Cl)cc2o1 [Example 31, 6-chloro-N-((R)-1-((cis)-4-(6-fluoroquinolin-4-yl)cyclohexyl)propan-2-yl)oxazolo[4,5-b]pyridin-2-amine]
16 | 0.0114 | 0.0087 |  |  |  | C[C@H](C[C@H]1CC[C@@H](c2ccnc3ccc(F)cc32)CC1)Nc1nc2ncccc2o1 [Example 32, N-((R)-1-((cis)-4-(6-fluoroquinolin-4-yl)cyclohexyl)propan-2-yl)oxazolo[4,5-b]pyridin-2-amine]
17 | 0.015 | 0.0065 |  |  |  | COc1ccc2nc(N[C@H](C)C[C@H]3CC[C@@H](c4ccnc5ccc(F)cc54)CC3)oc2c1 [Example 26, N-((R)-1-((cis)-4-(6-fluoroquinolin-4-yl)cyclohexyl)propan-2-yl)-6-methoxybenzo[d]oxazol-2-amine]
18 | 0.012 | 0.0086 |  |  |  | C[C@H](C[C@H]1CC[C@@H](c2ccnc3ccc(F)cc32)CC1)Nc1nc2c(F)cccc2o1 [Example 28, 4-fluoro-N-((R)-1-((cis)-4-(6-fluoroquinolin-4-yl)cyclohexyl)propan-2-yl)benzo[d]oxazol-2-amine]
19 | 0.014 | 0.008 |  |  |  | CCOc1ccc2nc(N[C@H](C)C[C@H]3CC[C@@H](c4ccnc5ccc(F)cc54)CC3)sc2c1 [Example 19, 6-ethoxy-N-((R)-1-((cis)-4-(6-fluoroquinolin-4-yl)cyclohexyl)propan-2-yl)benzo[d]thiazol-2-amine]
